Measured values published in the supplement of paper PMC3974653.
Counter-ions that a name gives are not always drawn.

Test system: MTT (mouse pheochromocytoma)
Assay: IC50 of cell viability (ATP content)
Settings: (24 or 48 h)
Summary of the method: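 MTT mouse pheochromocytoma cells, cultured overnight at 37°C, 5% CO2 in DMEM with 5% FBS and 1% horse serum, were exposed in white 1536-well plates to library compounds in DMSO at final 0.5 nM to 46 µM (8 concentrations) for 24 or 48 hrs. CellTiter-Glo luminescence was normalised to positive-control (100%) and DMSO (0%) wells. A four-parameter logistic fit gave the IC50.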

Compound | IC50 of cell viability
CCCC(CCC)C(=O)OC1C[C@H]2CC[C@@H](C1)[N+]2(C)C (stereo partly drawn) [ANISOTROPINE METHYLBROMIDE] | > 46 µM
Clc1cccc(SC2CCNCC2)n1 [ANPIRTOLINE] | > 46 µM
[S]=[Sb+]([S-])[S][Sb+](=[S])[S-] [ANTIMONY PENTASULFIDE] | > 46 µM
CCN(CC)CCOC(=O)C(C)(c1ccccc1)c1ccccc1 [APROFENUM] | > 46 µM
OCC(O)C(O)C(O)CO (stereo not drawn) [ARABITOL(D)] | > 46 µM
NCC[C@H](O)C(=O)N[C@@H]1C[C@H](N)[C@@H](O[C@H]2O[C@H](CN)CC[C@H]2N)[C@H](O)[C@H]1O[C@H]1O[C@H](CO)[C@@H](O)[C@H](N)[C@H]1O [ARBEKACIN SULFATE] | > 46 µM
OCC1O[C@H](Oc2ccc(O)cc2)C(O)C(O)C1O (stereo partly drawn) [ARBUTIN] | > 46 µM
N=C(N)NCCCCNC(=N)N.O=[S+]([O-])(O)O [ARCAINE SULFATE] | > 46 µM
COC(=O)\C1=C\CCN(C)C1 [ARECOLINE] | > 46 µM
COc1ccc(CC(C)NCC(O)c2ccc(O)c(NC=O)c2)cc1 (stereo not drawn) [ARFORMOTEROL TARTRATE] | > 46 µM
CC1CNc2c(cccc2S(=O)(=O)NC(CCCNC(=N)N)C(=O)N2CC[C@@H](C)C[C@@H]2C(=O)O)C1 (stereo partly drawn) [ARGATROBAN] | > 46 µM
CC(C)(C)NC[C@H](O)CSc1nc(-c2ccc(C(N)=O)s2)cs1 [AROTINOLOL HYDROCHLORIDE] | > 46 µM
COC(=O)C(Cc1ccccc1)NC(=O)C(N)CC(=O)O (stereo not drawn) [ASPARTAME] | > 46 µM
CNC(=O)C[C@@H](N)C(=O)N[C@@H](C(=O)N[C@@H]1C(=O)N2[C@@H]1SC(C)(C)[C@@H]2C(=O)O)c1ccc(O)cc1 [ASPOXICILLIN] | > 46 µM
CO[C@H]1[C@@H](O)[C@H](N)[C@@H](O[C@H]2O[C@@H]([C@H](C)N)CC[C@H]2N)[C@H](O)[C@@H]1N(C)C(=O)CN [ASTROMICIN SULPHATE] | > 46 µM
CN1[C@@H]2CC[C@@H]1CC(OC(=O)[C@H](CO)c1ccccc1)C2 (stereo partly drawn) [ATROPINE] | > 46 µM
OCC1OC([S][Au])[C@H](O)C(O)C1O (stereo partly drawn) [AUROTHIOGLUCOSE] | > 46 µM
CCC(C)C1O[C@]2(C=CC1C)CC1CC(C/C=C(\C)[C@H](OC3CC(OC)C(O[C@H]4CC(OC)[C@@H](O)C(C)O4)C(C)O3)[C@@H](C)/C=C/C=C3\COC4C(O)C(C)=C[C@H](C(=O)O1)[C@@]34O)O2 (stereo partly drawn) [AVERMECTIN B1] | > 46 µM

Compound | IC50 of cell viability
CC[C@H](C)[C@H](NC(=O)[C@H](CO)NC(=O)[C@H](CC(N)=O)NC(=O)[C@H](CC(C)C)NC(=O)[C@H](Cc1ccc(O)cc1)NC(=O)[C@H](CCCCN)NC(=O)[C@H](CCCCN)NC(=O)[C@@H](NC(=O)[C@H](C)NC(=O)[C@H](CCSC)NC(=O)[C@H](CCC(N)=O)NC(=O)[C@H](CCCCN)NC(=O)[C@H](CCCNC(=N)N)NC(=O)[C@H](CC(C)C)NC(=O)[C@H](CCCNC(=N)N)NC(=O)[C@@H](NC(=O)[C@H](Cc1ccc(O)cc1)NC(=O)[C@H](CC(N)=O)NC(=O)[C@H](CC(=O)O)NC(=O)[C@@H](NC(=O)[C@H](Cc1ccccc1)NC(=O)[C@@H](NC(=O)[C@H](C)NC(=O)[C@H](CC(=O)O)NC(=O)[C@H](CO)NC(=O)[C@@H](N)Cc1c[nH]cn1)C(C)C)[C@@H](C)O)[C@@H](C)O)C(C)C)C(=O)N[C@@H](CC(C)C)C(=O)N[C@@H](CC(N)=O)C(=O)O [AVIPTADIL] | > 46 µM
COc1ccc(C(=O)CC(=O)c2ccc(C(C)(C)C)cc2)cc1 [AVOBENZONE] | > 46 µM
[N-]=[N+]=CC(=O)OCC(N)C(=O)O (stereo not drawn) [AZASERINE] | > 46 µM
Cl.CN1CCCC(CC1)N2\N=C(CC3=CC=C(Cl)C=C3)/C4=CC=CC=C4C2=O (stereo not drawn) [AZELASTINE HYDROCHLORIDE] | > 46 µM
N[S+](=O)([O-])c1cc(-c2nnn[nH]2)c(NCc2cccs2)cc1Cl [AZOSEMIDE] | > 46 µM
CC(=O)O[C@H]1CC[C@]\2(C)C3CC[C@@]\4(C)C(C\C=C4C5=CC=CN=C5)C3C\C=C2C1 (stereo partly drawn) [Abiraterone Acetate] | > 46 µM
C[C@H]1OC(OC2C(O)[C@@H](O)C(OC3C(O)[C@@H](O)C(O)O[C@@H]3CO)O[C@@H]2CO)[C@H](O)C(O)C1N[C@H]1C=C(CO)[C@@H](O)[C@H](O)C1O (stereo partly drawn) [Acarbose] | > 46 µM
CCCC(=O)Nc1ccc(OC[C@@H](O)CNC(C)C)c(C(C)=O)c1 [Acebutolol hydrochloride] | > 46 µM
O=C(O)COC(=O)Cc1ccccc1Nc1c(Cl)cccc1Cl [Aceclofenac] | > 46 µM
COc1ccc2c(c1)c(CC(=O)OCC(=O)O)c(C)n2C(=O)c1ccc(Cl)cc1 [Acemetacin] | > 46 µM
CC(=O)C[C@H](C1=CC=C(C=C1)[N+]([O-])=O)\C2=C(/O)C3=C(OC2=O)C=CC=C3 [Acenocoumarol] | > 46 µM
CC/1=C/C(=O)[N-][S](=O)(=O)O1 [Acesulfame K] | > 46 µM
CCOC(C)OCC [Acetal (Acetaldehyde diethyl acetal)] | > 46 µM
CN(C)C(=O)CNC(=O)Cc1ccccc1 [Acetamide, N,N-dimethyl-2-(2-phenylacetamido)-] | > 46 µM
CC(C)=O [Acetone] | > 46 µM
O=C([O-])c1cc(Oc2ccc(C(F)(F)F)cc2Cl)ccc1[N+](=O)[O-] [Acifluorfen sodium] | > 46 µM
Nc1ncnc2c1ncn2CCOCP(=O)(O)O [Adefovir] | > 46 µM
CNCC(=O)c1ccc(O)c(O)c1 [Adrenone] | > 46 µM

The remaining lines, values ahead:

IC50 of cell viability | Compound
> 46 µM | CC(=O)Nc1ccc(O)cc1 [Acetaminophen (4-hydroxyacetanilide)]
> 46 µM | CC(=O)Nc1ccccc1 [Acetanilide]
> 46 µM | CC(=O)Nc1nnc([S+](N)(=O)[O-])s1 [Acetazolamide]
> 46 µM | CC(=O)c1ccc([S+](=O)([O-])NC(=O)NC2CCCCC2)cc1 [Acetohexamide]
> 46 µM | CC(=O)c1ccc2c(c1)N(CCCN(C)C)c1ccccc1S2 [Acetopromazine maleate salt]
> 46 µM | CO[C@@H]1[C@@H](OC2OC(C)C(OC3CC(C)(O)C(O)C(C)O3)C(N(C)C)C2O)[C@@H](CC=O)C[C@@H](C)[C@@H](OC2CCC(N(C)C)C(C)O2)/C=C/C=C/C[C@@H](C)OC(=O)C[C@H]1OC(C)=O (stereo partly drawn) [Acetyl Spiramycin]
> 46 µM | CC(=O)OCC[N+](C)(C)C [Acetylcholine chloride]
> 46 µM | CC(=O)Oc1ccccc1C(=O)O [Acetylsalicylic acid]
> 46 µM | CCC(Cc1c(I)cc(I)c(O)c1I)C(=O)O (stereo not drawn) [Acide iophenoique]
> 46 µM | O=C(O)c1ccc[n+]([O-])c1 [Acide oxiniacique]
> 46 µM | O=P([O-])(O)C(O)(Cc1cccnc1)P(=O)([O-])O [Acide risedronique]
> 46 µM | CC1(O\C(=C/C1=O)C(O)=O)C2=CC=CC=C2 (stereo not drawn) [Acifran]
> 46 µM | O=C(O)C(=O)Nc1cccc(-c2nnn[nH]2)c1 [Acitazanolast]
> 46 µM | CC(=O)O[C@@H](C)C(=O)OCC[N+](C)(C)C.CC(=O)O[C@@H](C)C(=O)OCC[N+](C)(C)C.O=S(=O)([O-])c1cccc2c(S(=O)(=O)[O-])cccc12 [Aclatonium Napadisilate]
> 46 µM | CC(=O)O[C@@H](C)C(=O)OCC[N+](C)(C)C.CC(=O)O[C@@H](C)C(=O)OCC[N+](C)(C)C.O=S(=O)([O-])c1cccc2c(S(=O)(=O)[O-])cccc12 [Aclatonium napadisilate]
> 46 µM | O=C(O)COc1ccccc1/C=N/NC(=O)c1ccncc1 [Aconiazida]
> 46 µM | CC(=O)OCC(=O)Nc1cc(C#N)cc(NC(=O)COC(C)=O)c1Cl [Acreozast]
> 46 µM | Cc1ccc(/C(=C\CN2CCCC2)c2cccc(/C=C/C(=O)O)n2)cc1 [Acrivastine]
> 46 µM | CC(=O)Nc1ccc(CC(=O)O)cc1 [Actarit]
> 46 µM | CCOc1ccc(S(=O)(=O)O)c2cccnc12 [Actinoquinolum]
> 46 µM | N\C1=N\C2=C(N=C[N]2COCCO)C(=O)N1 [Acyclovir]
> 46 µM | O=C(COc1ccc(Cl)cc1)OCCNC12C[C@H]3C[C@@H](C1)C[C@@H](C2)C3 [Adafenoxate]
> 46 µM | COc1ccc(-c2ccc3cc(C(=O)O)ccc3c2)cc1C12CC3CC(CC(C3)C1)C2 [Adapalene]
> 46 µM | Nc1ncnc2c1ncn2[C@@H]1O[C@@H]2COP(=O)(O)O[C@H]2[C@H]1O [Adenosine 3',5'-cyclic monophosphate]
> 46 µM | O=S([O-])CNc1ccc([S+](=O)([O-])c2ccc(NCS(=O)[O-])cc2)cc1 [Adesulfone sodium]
> 46 µM | O=C(O)CCCCC(=O)O [Adipic acid]
> 46 µM | COc1cccc2c1C(=O)c1c(O)c3c(c(O)c1C2=O)C[C@](O)(C(=O)CO)C[C@@H]3O[C@H]1C[C@H](N)[C@@H](O)[C@H](C)O1 [Adriamycin-DNA hydrochloride]
